# Peptide text beside a SMILES is read from it. * marks the point of attachment. Dansyl = CN(C)c1cccc2c(S(=O)(=O)*)cccc12; CH2Cl = ClC*
# Key:
# [1] = target: Prothrombin (Homo sapiens) (UniProt P00734); experiment: Inhibition of human thrombin (inhibitor concentration 1.2-54 uM)
# Prothrombin (Bos taurus) = Prothrombin (Bos taurus) (UniProt P00735); experiment: Inhibition of bovine thrombin (inhibitor concentration 1.2-54 uM)
# [2] = Hydrolysis half life (t1/2); type: ADME
# [3] = target: Tissue factor (Homo sapiens) (UniProt P13726); experiment: Anticoagulant activity in PT assay at a dose of 31 uM
# Chain of Tissue factor (Homo sapiens) (P13726 whole entry): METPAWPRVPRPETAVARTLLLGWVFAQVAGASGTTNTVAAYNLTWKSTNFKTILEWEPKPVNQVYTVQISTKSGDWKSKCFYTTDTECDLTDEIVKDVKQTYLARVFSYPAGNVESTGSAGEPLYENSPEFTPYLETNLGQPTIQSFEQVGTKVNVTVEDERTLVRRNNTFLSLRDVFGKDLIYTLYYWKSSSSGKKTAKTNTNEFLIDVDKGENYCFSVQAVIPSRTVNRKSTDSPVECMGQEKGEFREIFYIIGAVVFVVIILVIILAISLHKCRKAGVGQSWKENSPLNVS
# [4] = Anticoagulant activity was determined in Ortho-activated thrombofax (APTT) assay at a dose 9.4 uM in human dead plasma; type: functional
# [5] = Anticoagulant activity was determined in Ortho-activated thrombofax (APTT) assay at a dose 32 uM in human dead plasma; type: functional
# [6] = Anticoagulant activity was determined in Ortho-activated thrombofax (APTT) assay at a dose 31 uM in human dead plasma; type: functional
# [7] = target: T1, Coagulation factor VII (Homo sapiens) (UniProt P08709); experiment: Inhibition of human coagulation factor VII at 7.2-44 uM
# T1 sequence (whole entry): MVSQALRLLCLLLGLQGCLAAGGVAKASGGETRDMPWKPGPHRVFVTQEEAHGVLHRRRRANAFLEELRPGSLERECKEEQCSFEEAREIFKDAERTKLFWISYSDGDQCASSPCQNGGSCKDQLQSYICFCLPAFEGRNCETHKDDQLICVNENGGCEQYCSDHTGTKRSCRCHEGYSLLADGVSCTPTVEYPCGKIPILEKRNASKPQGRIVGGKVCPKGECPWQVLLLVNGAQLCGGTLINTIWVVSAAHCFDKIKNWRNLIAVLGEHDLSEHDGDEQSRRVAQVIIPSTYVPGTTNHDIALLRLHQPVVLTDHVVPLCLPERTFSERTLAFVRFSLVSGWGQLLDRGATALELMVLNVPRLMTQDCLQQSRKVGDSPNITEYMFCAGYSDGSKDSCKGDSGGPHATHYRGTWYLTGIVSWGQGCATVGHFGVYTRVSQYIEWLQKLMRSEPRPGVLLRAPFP
# [8] = target: Coagulation factor XI (Homo sapiens) (UniProt P03951); experiment: Compound was evaluated for inhibition of enzyme human coagulation factor XI (inhibitor concentration were 0.7-0.8 uM)
# Chain of Coagulation factor XI (Homo sapiens) (P03951 19-387 limits assumed): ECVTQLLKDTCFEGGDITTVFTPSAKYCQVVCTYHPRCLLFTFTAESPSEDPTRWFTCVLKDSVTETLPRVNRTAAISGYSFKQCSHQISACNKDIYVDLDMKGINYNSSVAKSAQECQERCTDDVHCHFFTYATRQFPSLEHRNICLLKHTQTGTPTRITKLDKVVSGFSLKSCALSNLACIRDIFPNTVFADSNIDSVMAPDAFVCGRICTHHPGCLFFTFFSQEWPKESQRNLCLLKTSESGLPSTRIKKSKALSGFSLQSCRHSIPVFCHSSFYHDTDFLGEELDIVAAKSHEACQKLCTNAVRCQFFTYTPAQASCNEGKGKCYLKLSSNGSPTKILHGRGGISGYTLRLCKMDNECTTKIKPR
# Chain of Coagulation factor XI (Homo sapiens) (P03951 388-625 limits assumed): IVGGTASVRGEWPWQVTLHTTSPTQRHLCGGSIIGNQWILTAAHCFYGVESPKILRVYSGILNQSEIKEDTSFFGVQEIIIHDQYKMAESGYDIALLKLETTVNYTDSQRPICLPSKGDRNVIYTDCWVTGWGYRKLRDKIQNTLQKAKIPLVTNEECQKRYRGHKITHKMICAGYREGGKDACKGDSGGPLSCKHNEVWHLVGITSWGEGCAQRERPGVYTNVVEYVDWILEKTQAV
# [9] = target: Coagulation factor X (Homo sapiens) (UniProt P00742); experiment: Inhibition of human factor Xa (inhibitor concentration were 3.6-44 uM)
# Chain of Coagulation factor X (Homo sapiens) (P00742 41-179 limits assumed): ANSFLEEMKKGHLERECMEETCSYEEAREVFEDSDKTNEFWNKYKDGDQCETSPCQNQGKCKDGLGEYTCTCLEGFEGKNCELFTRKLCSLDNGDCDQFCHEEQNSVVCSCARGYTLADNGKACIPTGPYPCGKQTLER
# Chain of Coagulation factor X (Homo sapiens) (P00742 235-488 limits assumed): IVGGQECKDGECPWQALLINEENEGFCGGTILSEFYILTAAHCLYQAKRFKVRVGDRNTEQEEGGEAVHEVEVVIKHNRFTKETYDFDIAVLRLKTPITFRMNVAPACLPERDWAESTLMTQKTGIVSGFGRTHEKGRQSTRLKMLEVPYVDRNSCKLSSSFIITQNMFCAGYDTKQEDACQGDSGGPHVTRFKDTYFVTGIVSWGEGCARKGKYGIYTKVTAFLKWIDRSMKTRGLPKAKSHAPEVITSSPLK
# [10] = target: T2, Coagulation factor XII (Homo sapiens) (UniProt P00748); experiment: Inhibition of human coagulation factor XII (inhibitor concentration were 3.6-4.9 uM)
# T2 sequence (whole entry): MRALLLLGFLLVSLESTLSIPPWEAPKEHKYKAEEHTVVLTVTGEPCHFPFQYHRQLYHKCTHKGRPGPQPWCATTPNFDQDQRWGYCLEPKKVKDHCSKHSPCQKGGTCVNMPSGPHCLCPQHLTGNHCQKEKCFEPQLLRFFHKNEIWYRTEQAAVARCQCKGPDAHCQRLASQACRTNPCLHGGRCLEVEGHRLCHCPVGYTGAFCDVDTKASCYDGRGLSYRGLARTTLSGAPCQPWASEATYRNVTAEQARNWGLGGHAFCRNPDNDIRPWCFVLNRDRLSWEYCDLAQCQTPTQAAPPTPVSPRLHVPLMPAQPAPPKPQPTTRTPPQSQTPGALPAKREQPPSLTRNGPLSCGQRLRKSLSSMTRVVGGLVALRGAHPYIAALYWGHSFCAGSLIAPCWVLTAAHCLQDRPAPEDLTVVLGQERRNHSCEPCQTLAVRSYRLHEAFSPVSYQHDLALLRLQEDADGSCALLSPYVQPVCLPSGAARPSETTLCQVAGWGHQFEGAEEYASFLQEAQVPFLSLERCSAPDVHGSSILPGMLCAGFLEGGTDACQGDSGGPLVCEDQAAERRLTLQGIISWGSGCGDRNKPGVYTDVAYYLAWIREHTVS
# [11] = target: Coagulation factor IX (Homo sapiens) (UniProt P00740); experiment: Inhibition of porcine factor IXa at 8.3-82 uM; conditions: Sus scrofa, target entry is the homologue from another species
# [12] = target: T3, Coagulation factor III (Sus scrofa) (UniProt Q6RCS8); experiment: Anticoagulant activity in PT assay at a dose of 32 uM
# T3 sequence (whole entry): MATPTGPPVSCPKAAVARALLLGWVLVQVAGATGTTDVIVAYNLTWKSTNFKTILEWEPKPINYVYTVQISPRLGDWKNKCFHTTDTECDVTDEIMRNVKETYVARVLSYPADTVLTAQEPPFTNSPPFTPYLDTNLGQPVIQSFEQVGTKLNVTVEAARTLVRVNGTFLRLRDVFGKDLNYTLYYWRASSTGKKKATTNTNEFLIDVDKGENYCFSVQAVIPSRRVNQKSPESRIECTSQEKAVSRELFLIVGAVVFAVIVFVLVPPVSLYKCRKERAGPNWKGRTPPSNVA
# [13] = Anticoagulant activity was determined in Ortho-activated thrombofax (APTT) assay at a dose 32 uM in pig plasma; type: functional, Sus scrofa
# [14] = target: T3, Coagulation factor III (Sus scrofa); experiment: Anticoagulant activity in PT assay at a dose 32 uM
# [15] = Anticoagulant activity was determined in Ortho-activated thrombofax (APTT) assay at a dose 16 uM in pig plasma; type: functional, Sus scrofa
# [16] = target: T3, Coagulation factor III (Sus scrofa); experiment: Anticoagulant activity in PT assay at a dose 16 uM
Structure (SMILES),K obs / 1 [1] [M⁻¹ s⁻¹],K obs / 1 (Prothrombin (Bos taurus)) [M⁻¹ s⁻¹],half-life [2] [min],K obs / 1 [7] [M⁻¹ s⁻¹],K obs / 1 [9] [M⁻¹ s⁻¹],K obs / 1 [10] [M⁻¹ s⁻¹],K obs / 1 [11] [M⁻¹ s⁻¹],also measured
CC(C)(C)OC(=O)N[C@@H](Cc1ccccc1)C(=O)Nc1ccc2c(Cl)c(OCCCSC(=N)N)oc(=O)c2c1,230,190,51,–,–,–,–,–
N=C(N)SCCOc1oc(=O)c2cc(NC(=O)CCc3ccccc3)ccc2c1Cl,2150,–,39,–,–,–,–,PT [3]: 24.4 s; APTT [4]: 52.4 s; APTT [5]: 140 s; APTT [6]: 76.2 s
N=C(N)SCCCOc1oc(=O)c2cc(N)ccc2c1Cl,760,630,90,430,60,6200,80,K obs / 1 [8]: 22000 M⁻¹ s⁻¹
C[C@@H](NC(=O)Nc1ccc2c(Cl)c(OCCSC(=N)N)oc(=O)c2c1)c1ccccc1,12000,29500,62,–,–,–,–,PT [12]: 26.2 s; APTT [13]: >120 s
N=C(N)SCCOc1oc(=O)c2cc(NC(=O)Nc3ccccc3)ccc2c1Cl,22400,25000,108,3140,4740,50000,1790,PT [14]: 58.3 s; K obs / 1 [8]: 104000 M⁻¹ s⁻¹; APTT [15]: >120 s; APTT [4]: 47.7 s; PT [16]: 28.5 s; APTT [6]: 87.3 s
N=C(N)SCCOc1oc(=O)c2cc(NC(=O)[C@@H](N)Cc3ccccc3)ccc2c1Cl,3070,4240,18,–,3070,82000,–,–
C[C@H](NC(=O)OC(C)(C)C)C(=O)N[C@@H](C)C(=O)Nc1ccc2c(Cl)c(OCCSC(=N)N)oc(=O)c2c1,970,1530,40,–,–,–,–,–
N=C(N)SCCOc1oc(=O)c2cc(NC(=O)NC(c3ccccc3)c3ccccc3)ccc2c1Cl,7050,–,168,–,–,–,–,PT [3]: 18.4 s; APTT [6]: 121 s
CC(C)(C)OC(=O)N[C@@H](Cc1ccccc1)C(=O)Nc1ccc2c(Cl)c(OCCSC(=N)N)oc(=O)c2c1,1090,1040,39,–,–,–,–,–
CC(C)NC(=O)Nc1ccc2c(Cl)c(OCCSC(=N)N)oc(=O)c2c1,5000,4100,–,–,–,–,–,–
O=c1oc(Cl)c(Cl)c2ccccc12,10,25,–,31,–,64,10,–
N=C(N)SCCCOc1oc(=O)c2cc(NC(=O)Cc3ccccc3)ccc2c1Cl,610,600,61,610,610,610,610,K obs / 1 [8]: 610 M⁻¹ s⁻¹
C[C@H](NC(=O)Nc1ccc2c(Cl)c(OCCSC(=N)N)oc(=O)c2c1)c1ccccc1,21000,41300,56,1830,–,–,3980,PT [14]: 30 s; APTT [4]: 57.6 s; APTT [6]: 111.2 s; APTT [13]: >120 s
CC(C)(C)OC(=O)N[C@H](Cc1ccccc1)C(=O)Nc1ccc2c(Cl)c(OCCSC(=N)N)oc(=O)c2c1,1140,1090,42,–,1620,–,–,–
N=C(N)SCCOc1oc(=O)c2cc(NC(=O)NCc3ccccc3)ccc2c1Cl,11700,16800,–,1810,2340,45000,2320,PT [14]: 31.1 s; K obs / 1 [8]: 105000 M⁻¹ s⁻¹; APTT [4]: 60.1 s; APTT [6]: 115.4 s; APTT [13]: >120 s
N=C(N)SCCCOc1oc(=O)c2cc(NC(=O)[C@@H](N)Cc3ccccc3)ccc2c1Cl,220,180,42,–,–,–,–,–
N=C(N)SCCCOc1oc(=O)c2cc(NC(=O)Nc3ccccc3)ccc2c1Cl,1840,970,148,720,50,7720,110,–
N=C(N)SCCOc1oc(=O)c2cc(NC(=O)[C@H](N)Cc3ccccc3)ccc2c1Cl,1340,1280,21,4010,3770,107000,1590,–
CCOc1oc(=O)c2cc(NC(=N)N)ccc2c1Cl,–,55000,–,2200,11000,22000,2850,K obs / 1 [8]: 60000 M⁻¹ s⁻¹
CC(C)(C)OC(=O)N[C@H](Cc1ccccc1)C(=O)Nc1ccc2c(Cl)c(OCCCSC(=N)N)oc(=O)c2c1,520,330,55,–,–,–,–,–
CC(=O)CCC(=O)Nc1ccc2c(Cl)c(OCCSC(=N)N)oc(=O)c2c1,1770,–,28,–,–,–,–,PT [3]: 42.5 s; APTT [6]: >140 s
N=C(N)SCCOc1oc(=O)c2cc(NC(=O)Nc3cccc4ccccc34)ccc2c1Cl,5800,17500,–,–,–,–,–,–
N=C(N)SCCCOc1oc(=O)c2ccccc2c1Cl,–,1400,–,450,–,27000,90,K obs / 1 [8]: 47000 M⁻¹ s⁻¹
N=C(N)SCCCOc1oc(=O)c2cc(NC(=O)[C@H](N)Cc3ccccc3)ccc2c1Cl,470,400,46,–,–,–,–,–
N=C(N)SCCCOc1oc(=O)c2cc(NC(=O)NCc3ccccc3)ccc2c1Cl,700,420,148,–,–,–,–,–
N=C(N)SCCCOc1oc(=O)c2cc(NC(=O)CCc3ccccc3)ccc2c1Cl,630,820,66,–,–,–,–,–
CN(C)c1cccc2c(S(=O)(=O)N[C@@H](CCC(=O)O)C(=O)NCC(=O)N[C@@H](CCCN=C(N)N)C(=O)CCl)cccc12 (Dansyl-Glu-Gly-Arg-CH2Cl),–,–,–,20,–,–,180,–
C[C@H](N)C(=O)N[C@@H](C)C(=O)Nc1ccc2c(Cl)c(OCCSC(=N)N)oc(=O)c2c1,880,1070,–,–,1490,–,–,–
CC(=O)Nc1ccc2c(Cl)c(OCCCSC(=N)N)oc(=O)c2c1,310,420,68,–,–,–,–,–
N=C(N)SCCOc1oc(=O)c2cc(NC(=O)Cc3ccccc3)ccc2c1Cl,6730,15800,–,1100,3630,59000,2620,–

# Reference: ChEMBL document CHEMBL1127646, “Mechanism-based isocoumarin inhibitors for blood coagulation serine proteases. Effect of the 7-substituent in 7-amino-4-chloro-3-(isothioureidoalkoxy)isocoumarins on inhibitory and anticoagulant potency” (J Med Chem, 1994)
